Assay results from patent US12605374B2, “Methods for drug screening and compositions useful for the inhibition of cell proliferation and/or cell survival” (The Brigham and Women's Hospital, Inc., priority 2019, dated 2026).
“Also recorded” adds a separate entry of the source.

Experiments:
[1] = tested on: Phospholipase D (Streptomyces chromofuscus); assay: In vitro Phospholipase D activity assay (Amplex Red kit); type: biochemical; conditions: listed as DA5
[2] = molecular target: T1, recombinant human Topoisomerase I (Homo sapiens, UniProt P11387); assay: Topoisomerase I and DNA binding gel electrophoresis assay; type: biochemical
T1 construct: purchased TopoGEN, Inc. TG2005H
T1 sequence (P11387 1-765): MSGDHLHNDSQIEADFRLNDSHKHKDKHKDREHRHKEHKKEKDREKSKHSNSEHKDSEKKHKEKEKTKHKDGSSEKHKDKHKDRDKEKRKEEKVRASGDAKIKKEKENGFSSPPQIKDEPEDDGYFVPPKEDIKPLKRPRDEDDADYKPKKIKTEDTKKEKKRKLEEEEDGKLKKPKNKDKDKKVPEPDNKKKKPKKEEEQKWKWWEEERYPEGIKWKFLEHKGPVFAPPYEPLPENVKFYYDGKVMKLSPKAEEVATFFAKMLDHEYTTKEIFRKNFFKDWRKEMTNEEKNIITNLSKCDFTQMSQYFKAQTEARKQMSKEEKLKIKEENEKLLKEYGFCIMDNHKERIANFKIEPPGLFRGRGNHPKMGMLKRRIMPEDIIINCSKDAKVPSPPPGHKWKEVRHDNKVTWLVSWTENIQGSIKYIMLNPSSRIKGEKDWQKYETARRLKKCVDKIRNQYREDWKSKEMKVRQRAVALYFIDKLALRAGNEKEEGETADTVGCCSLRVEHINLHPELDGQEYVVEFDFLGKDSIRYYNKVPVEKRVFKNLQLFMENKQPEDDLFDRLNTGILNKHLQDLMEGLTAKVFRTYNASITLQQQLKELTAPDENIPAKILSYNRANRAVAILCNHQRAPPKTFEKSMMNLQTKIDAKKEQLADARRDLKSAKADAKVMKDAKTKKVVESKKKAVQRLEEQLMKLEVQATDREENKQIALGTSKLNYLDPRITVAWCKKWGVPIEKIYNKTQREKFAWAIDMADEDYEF
Method: FIG. 12: Topoisomerase I and DNA binding assay for DA5. The effect of DA5 on Topoisomerase-mediated DNA unwinding is measured through a gel electrophoresis assay (see Methods).
0.5 ug of pHOT-1 supercoiled DNA (TopoGEN, Inc. TG2030-2) was combined with 2× Topoisomerase I assay buffer (50 mM Tris-HCL (ph7.9), 1 mM EDTA, 1 mM DTT, 20% (v/v) glycerol, 50 mM NaCl), nuclease free water and either DMSO vehicle control, m-AMSA positive control (100-1000 uM; TopoGEN, Inc. […] TG2005H) was added to treatments corresponding to lanes 3-12 with 2 ul of dilution buffer (5 mM Tris-HCL (pH 7.9), 1 mM EDTA, 1 mM DTT, 50% (v/v) glycerol, 500 mM NaCl) added to control treatments lacking enzyme (lanes 2, 13 and 14). Reactions were mixed and incubated at 37° C. for 30 minutes. Reactions were terminated with the addition of 20 ul nuclease free water and 50 ul of 1-butanol (water-saturated) followed by vortex and centrifugation at 13,000 rpm for 1 minute. The lower aqueous phase was removed and added to 50 ul chloroform/isoamyl alcohol (24/1) and 50 ul of 2×STEB buffer (40% (w/v) sucrose, 100 mM Tris-HCL (pH 8), 1 mM EDTA, 0.5 mg/ml bromophenol blue) followed by mixing and centrifugation at 13,000 rpm for 1 minute. […] The gel was stained with ethidium bromide for 15 minutes followed by de-staining in distilled water for 10 minutes. Gels were exposed and images acquired using the iBrightFL1000 gel documentation system (Invitrogen).

[3] = molecular target: T2, Phospholipase C (Bacillus cereus, UniProt P09598); assay: In vitro Phospholipase C activity assay (EnzChek Direct kit); type: biochemical
T2 construct: purchased Thermo Fisher
Method: Phospholipase D, C, and A2 activity were measured in vitro using commercial kits. For Phospholipase D, the Amplex Red Phospholipase D Assay Kit (Thermo Fisher) was used with Phospholipase D (Streptomyces chromofuscus—Enzo Life Sciences) added, and FIPI (4-Fluoro-N-(2-(4-(5-fluoro-1H-indol-1-yl)piperidin-1-yl)ethyl)benzamide, 5-Fluoro-2-indolyl deschlorohalopemide) hydrochloride (Sigma) acting as a positive control. To assay Phospholipase A2 activity, we used an EnzChek Phospholipase A2 Assay kit (Thermo Fisher) with Manoalide (Santa Cruz) as a positive control. To assay Phospholipase C activity, we used an EnzChek Direct Phospholipase C Assay Kit (Thermo Fisher) with D609 (Sigma) as a positive control. Tyrosinase activity was measured using a colorimetric Tyrosinase inhibitor screening kit (BioVision) with PTU as a positive control. For each assay, solutions were prepared in 96-well black clear bottom plates and read using a FLUOstar Omega plate reader at the wavelengths recommended by the respective manufacturers, with each measurement representing the average of at least 4 plate wells.

[4] = tested on: zebrafish embryos; assay: DA5 dose, time course and washout analysis of developmental delay/arrest; type: in vivo
Description: FIG. 4 (A)-(E): Function of delay/arrest compounds. 7 of the 10 compounds predicted as having a delay/arrest phenotype with the highest confidence caused obvious but divergent delay/arrest effects (A). For chemical structures associated with these Chembridge IDs see Figure S13. (www.chembridge.com). Some arrested development at shield stage, while others caused a slower developmental progression.
We reasoned that this was likely due to differences in the target affinities of the various DA compounds.

[5] = tested on: Human osteosarcoma cells (U-2 OS); assay: EdU proliferation assay in human cell line; type: cell-based; conditions: osteoblastic / immortalized cells (U-2 OS), four hours after drug introduction; positive control c-Myc inhibitor 10058-F4
Method: FIG. 16 (A)-(C): Effect of DA5 in human cell culture. Proliferation of osteoblastic cells was measured following introduction of DA5.
Human osteosarcoma cells (U-2 OS) were obtained from ATCC (HTB-96) and re-suspended in McCoy's 5a medium (ATCC 30-2007) containing 10% FBS and penicillin/streptomycin. Cells were passaged at least 5 times before use in proliferation assays. To perform the proliferation assay, cells were trypsinized using standard protocols, plated at 1000 cells per well in 96-well clear-bottom black cell culture treated plates, and allowed 24 hours to attach. Compounds of interest were dissolved in DMSO and introduced at an overall DMSO concentration not exceeding 0.1% by volume. Four hours after drug introduction, cells were stained and fixed using the protocol described in the Click-iT EdU Alexa Fluor 488 Imaging kit (Thermo Fisher), with Hoescht staining used to identify total cell numbers. Each well was imaged using a Nikon Eclipse Ti Epifluorescent microscope with automated stage and counts of dividing and total cells were obtained in an automated fashion using Nikon's NIS Elements software. Percent of dividing cells reported is the result of at least 4 replicates. Controls were given the same DMSO concentration by volume as compound-treated wells.

[6] = molecular target: Phospholipase A2 (Apis mellifera, UniProt P00630); type: biochemical
Chain of Phospholipase A2 (P00630 34-167 limits assumed): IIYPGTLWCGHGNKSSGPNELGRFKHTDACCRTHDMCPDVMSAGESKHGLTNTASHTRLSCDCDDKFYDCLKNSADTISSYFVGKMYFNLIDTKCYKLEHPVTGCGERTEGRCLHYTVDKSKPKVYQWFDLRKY

T2 sequence (P09598 39-283 limits assumed): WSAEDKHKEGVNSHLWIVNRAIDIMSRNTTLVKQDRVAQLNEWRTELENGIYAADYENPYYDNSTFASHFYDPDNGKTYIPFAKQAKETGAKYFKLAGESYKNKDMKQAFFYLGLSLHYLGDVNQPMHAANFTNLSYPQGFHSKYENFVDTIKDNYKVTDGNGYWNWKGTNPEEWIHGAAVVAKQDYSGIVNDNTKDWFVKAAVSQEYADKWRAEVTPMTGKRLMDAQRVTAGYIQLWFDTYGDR

## CCC1(CC)CCN(C(=O)c2cc(COc3ccc4ncccc4c3)on2)C1 [ChemBridge ID 65692859, 6-([3-[(3,3-diethylpyrrolidin-1-yl)carbonyl]isoxazol-5-yl]methoxy)quinoline]
[1]
  activity of phospholipase D: decrease in the activity; also recorded: inhibit phospholipase D activity
[2]; DNA intercalation analysis, listed as DA5
  DNA-binding / DNA intercalation / inhibition of Topoisomerase I: not due to DNA-binding or inhibition of Topoisomerase (TOPO) I; also recorded: not observed
[2]; concentrations up to 100 mM (so in the source), versus DMSO
  effect on Topoisomerase-mediated DNA unwinding (gel electrophoresis): no more effect on DNA cleavage than DMSO
[3]
  activity of phospholipase C: increased activity
[4]; introduced at 24 hours post fertilization and beyond
  time course analysis: effect in more developed embryos: mortality being almost immediate
[4]; introduced at early stages (<12 h), up to and during gastrulation, listed as DA5
  time course analysis: effect on early development: arrest up to and during gastrulation immediately after introduction; also recorded: arrested development at any stage of early (<12 h) development
[4]; introduced in zebrafish embryo medium at 5 μM
  developmental phenotype: developmental delay
[4]; introduced in zebrafish embryo medium at 10 μM
  developmental phenotype: sphere stage arrest
[4]; washout of compound
  recovery of embryos after washout: did not allow embryos to recover
[5]
  suppression of cell proliferation: greater than that seen with positive control
[6]
  activity of phospholipase A2: increased activity
